Experimental findings from ChEMBL document CHEMBL4308853, “Design, Synthesis, and Pharmacological Evaluation of Novel β2/3 Subunit-Selective γ-Aminobutyric Acid Type A (GABAA) Receptor Modulators” (J Med Chem, 2018) are described below.

Structures are written as SMILES. Active and inactive are the calls of the source.

Data set [1] addresses T1, GABA-A receptor; alpha-1/beta-3/gamma-2 (Homo sapiens, UniProt P14867+P18507+P28472).
T1 sequence (P14867 whole entry): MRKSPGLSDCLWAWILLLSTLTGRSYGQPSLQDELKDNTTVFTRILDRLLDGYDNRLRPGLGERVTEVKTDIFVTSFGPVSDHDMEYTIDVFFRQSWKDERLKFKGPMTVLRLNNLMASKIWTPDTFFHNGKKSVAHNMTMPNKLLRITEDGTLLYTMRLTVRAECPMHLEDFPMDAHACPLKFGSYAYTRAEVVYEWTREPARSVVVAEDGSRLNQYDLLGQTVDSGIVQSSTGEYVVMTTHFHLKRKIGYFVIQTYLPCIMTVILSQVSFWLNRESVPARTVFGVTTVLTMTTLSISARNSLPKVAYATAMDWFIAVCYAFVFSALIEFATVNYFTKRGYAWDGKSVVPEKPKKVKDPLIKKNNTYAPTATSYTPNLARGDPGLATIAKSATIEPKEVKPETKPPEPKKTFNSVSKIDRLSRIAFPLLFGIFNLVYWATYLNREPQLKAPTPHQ
T1 sequence (P18507 whole entry): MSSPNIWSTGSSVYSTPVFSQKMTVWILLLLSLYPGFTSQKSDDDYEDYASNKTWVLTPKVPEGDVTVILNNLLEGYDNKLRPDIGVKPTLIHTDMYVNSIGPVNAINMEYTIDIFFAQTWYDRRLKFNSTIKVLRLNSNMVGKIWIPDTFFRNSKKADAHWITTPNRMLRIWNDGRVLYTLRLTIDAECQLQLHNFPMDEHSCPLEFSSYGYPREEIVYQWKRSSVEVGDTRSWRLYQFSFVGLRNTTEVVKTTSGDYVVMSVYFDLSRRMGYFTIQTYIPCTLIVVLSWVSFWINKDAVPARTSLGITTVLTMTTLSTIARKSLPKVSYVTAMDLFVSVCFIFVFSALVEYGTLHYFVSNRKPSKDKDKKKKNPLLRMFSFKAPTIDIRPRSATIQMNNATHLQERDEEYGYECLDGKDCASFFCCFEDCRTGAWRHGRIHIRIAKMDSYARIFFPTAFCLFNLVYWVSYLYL
T1 sequence (P28472 whole entry): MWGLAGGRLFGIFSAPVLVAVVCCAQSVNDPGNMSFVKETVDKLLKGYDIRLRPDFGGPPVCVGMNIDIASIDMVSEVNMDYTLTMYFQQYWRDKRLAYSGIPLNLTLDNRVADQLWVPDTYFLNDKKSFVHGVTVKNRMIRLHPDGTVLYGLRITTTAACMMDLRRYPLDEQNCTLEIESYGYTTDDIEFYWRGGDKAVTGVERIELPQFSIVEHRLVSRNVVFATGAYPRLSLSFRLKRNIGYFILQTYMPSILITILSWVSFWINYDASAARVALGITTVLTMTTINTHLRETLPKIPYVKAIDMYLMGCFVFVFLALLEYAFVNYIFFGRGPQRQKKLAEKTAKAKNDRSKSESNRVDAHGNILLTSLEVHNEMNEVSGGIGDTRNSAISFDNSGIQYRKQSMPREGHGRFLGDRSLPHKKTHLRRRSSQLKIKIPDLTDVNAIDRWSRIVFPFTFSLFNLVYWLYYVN
Put plainly: Positive allosteric modulation of GABA-A alpha1beta3gamma2S receptor (unknown origin) expressed in Xenopus laevis oocytes assessed as increase in GABA-induced chloride current after 15 mins at -70 mV holding potential by two-microelectrode voltage clamp method. In kind it is cell-based.

In data set [2] the target is T2, GABA-A receptor; alpha-1/beta-2/gamma-2 (Homo sapiens, UniProt P14867+P18507+P47870).
T2 sequence (P14867 whole entry): T1 sequence (P14867 whole entry)
T2 sequence (P47870 whole entry): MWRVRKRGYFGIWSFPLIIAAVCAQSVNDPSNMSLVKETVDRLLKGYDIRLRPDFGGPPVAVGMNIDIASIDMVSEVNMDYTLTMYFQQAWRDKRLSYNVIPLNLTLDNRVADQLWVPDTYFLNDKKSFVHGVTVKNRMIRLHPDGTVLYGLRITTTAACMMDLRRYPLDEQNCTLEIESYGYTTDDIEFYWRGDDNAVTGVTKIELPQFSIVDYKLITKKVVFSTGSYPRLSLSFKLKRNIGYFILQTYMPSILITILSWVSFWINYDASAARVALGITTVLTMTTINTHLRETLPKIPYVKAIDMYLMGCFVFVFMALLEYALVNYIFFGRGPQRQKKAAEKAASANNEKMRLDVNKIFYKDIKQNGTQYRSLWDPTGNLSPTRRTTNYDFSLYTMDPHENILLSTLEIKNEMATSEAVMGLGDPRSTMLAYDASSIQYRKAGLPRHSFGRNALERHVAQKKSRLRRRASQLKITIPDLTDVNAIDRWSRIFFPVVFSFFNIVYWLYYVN
T2 sequence (P18507 whole entry): T1 sequence (P18507 whole entry)
Put plainly: Positive allosteric modulation of GABA-A alpha1beta2gamma2S receptor (unknown origin) expressed in Xenopus laevis oocytes assessed as increase in GABA-induced chloride current after 15 mins at -70 mV holding potential by two-microelectrode voltage clamp method. The class given is cell-based.

Data set [3] addresses T3, GABA-A receptor; anion channel (Rattus norvegicus) (UniProt O09028+P15431+P18506+P18508+P19969+P20236+P23574+P23576+P28471+P28473+P30191+P62813+P63079+P63138+Q91ZM7+Q9ES14). Description: Positive allosteric modulation of GABA-A receptor in Sprague-Dawley rat primary hippocampal neurons assessed as increase in channel-mediated tonic current at 10 uM for 300 secs at -70 mV holding potential by patch-clamp method. The class given is protein-complex assay.

The target of data set [4] is T3, GABA-A receptor; anion channel (Rattus norvegicus). Description: Positive allosteric modulation of GABA-A receptor in Sprague-Dawley rat primary hippocampal neurons assessed as miniature inhibitory postsynaptic current mean frequency at 10 uM for 300 secs at -70 mV holding potential by patch-clamp method. The class given is protein-complex assay. Details: scale not given: the % may be the effect or the level left. A general note: Patch clamp records ionic current or voltage across a cell membrane.

Data set [5] concerns the target T4, GABA A receptor alpha-1/beta-1/gamma-2 (Homo sapiens, UniProt P14867+P18505+P18507).
T4 sequence (P14867 whole entry): T1 sequence (P14867 whole entry)
T4 sequence (P18507 whole entry): T1 sequence (P18507 whole entry)
T4 sequence (P18505 whole entry): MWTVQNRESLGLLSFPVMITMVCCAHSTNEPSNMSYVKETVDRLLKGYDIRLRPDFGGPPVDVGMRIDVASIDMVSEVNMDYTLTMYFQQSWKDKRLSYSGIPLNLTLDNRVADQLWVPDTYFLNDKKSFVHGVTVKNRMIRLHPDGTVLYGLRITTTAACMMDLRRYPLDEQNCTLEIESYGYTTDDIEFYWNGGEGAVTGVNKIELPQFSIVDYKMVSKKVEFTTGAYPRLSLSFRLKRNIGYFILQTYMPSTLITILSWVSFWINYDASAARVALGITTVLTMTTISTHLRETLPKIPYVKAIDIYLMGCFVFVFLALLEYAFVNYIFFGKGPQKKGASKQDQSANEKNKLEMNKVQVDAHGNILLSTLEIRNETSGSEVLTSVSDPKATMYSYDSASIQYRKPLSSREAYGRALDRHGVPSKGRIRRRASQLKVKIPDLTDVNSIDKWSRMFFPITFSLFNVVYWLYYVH
Description: Positive allosteric modulation of GABA-A alpha1beta1gamma2S receptor (unknown origin) expressed in Xenopus laevis oocytes assessed as increase in GABA-induced chloride current at 300 uM after 15 mins at -70 mV holding potential by two-microelectrode voltage clamp method relative to control. In kind it is cell-based. The conditions noted are these: 0.25 h.

The test system of another data set is Oocyte. Description: Induction of current in Xenopus laevis oocytes at 10 to 100 uM after 5 mins by two-microelectrode voltage clamp method. In kind it is cell-based.
Data set [6] addresses T3, GABA-A receptor; anion channel (Rattus norvegicus). Put plainly: Positive allosteric modulation of GABA-A receptor in Sprague-Dawley rat primary hippocampal neurons assessed as prolongation of miniature inhibitory postsynaptic current decay time at 10 uM for 300 secs at -70 mV holding potential by patch-clamp method. In kind it is protein-complex assay. Also on record: scale not given: the % may be the effect or the level left.

Data set [7] concerns the target GABA-A receptor; alpha-1/beta-3/gamma-2 (Homo sapiens, UniProt P14867+P18507+P28472, N265S). Description: Positive allosteric modulation of GABA-A alpha1beta3(N265S)gamma2S mutant receptor (unknown origin) expressed in Xenopus laevis oocytes assessed as increase in GABA-induced chloride current after 15 mins at -70 mV holding potential by two-microelectrode voltage clamp method. The class given is cell-based.

The target in data set [8] is Metabotropic glutamate receptor 2 (Homo sapiens) (UniProt Q14416). Put plainly: Positive allosteric modulation of mGluR2 (unknown origin) expressed in Xenopus laevis oocytes assessed as increase in glutamate-induced channel current at 10 to 100 uM at -70 mV holding potential by two-microelectrode voltage clamp method. The class given is cell-based.
Data set [9] has as its system Mus musculus. Put plainly: Anticonvulsive activity in C57BL/6N mouse assessed as protection against 39.5 +/- 0.8 mg/kg pentylenetetrazole-induced seizures by measuring elevation in seizure threshold at 0.1 to 0.3 mg/kg, ip pretreated for 30 mins followed by pentylenetetrazole tail-vein infusion. In kind it is functional, organism-based.
Data set [10] has as its target T5, Neuronal acetylcholine receptor; alpha4/beta2 (Homo sapiens) (UniProt P17787+P43681). Description: Positive allosteric modulation of alpha4beta2 nAChR (unknown origin) expressed in Xenopus laevis oocytes assessed as increase in acetylcholine-induced channel current at 10 to 100 uM at -70 mV holding potential by two-microelectrode voltage clamp method. The class given is cell-based.

Data set [11] has as its target GABA A receptor alpha-1/beta-1/gamma-2 (Homo sapiens, UniProt P14867+P18505+P18507, S290N). Description: Positive allosteric modulation of GABA-A alpha1beta1(S290N)gamma2S mutant receptor (unknown origin) expressed in Xenopus laevis oocytes assessed as increase in GABA-induced chloride current after 15 mins at -70 mV holding potential by two-microelectrode voltage clamp method. The class given is cell-based.

The target of data set [12] is T3, GABA-A receptor; anion channel (Rattus norvegicus). Put plainly: Positive allosteric modulation of GABA-A receptor in Sprague-Dawley rat primary hippocampal neurons assessed as miniature inhibitory postsynaptic current amplitude at 10 uM for 300 secs at -70 mV holding potential by patch-clamp method. In kind it is protein-complex assay. Also on record: scale not given: the % may be the effect or the level left.

Data set [13] deals with T4, GABA A receptor alpha-1/beta-1/gamma-2. Put plainly: Positive allosteric modulation of GABA-A alpha1beta1gamma2S receptor (unknown origin) expressed in Xenopus laevis oocytes assessed as increase in GABA-induced chloride current after 15 mins at -70 mV holding potential by two-microelectrode voltage clamp method. In kind it is cell-based.
Data set [14] deals with T3, GABA-A receptor; anion channel (Rattus norvegicus). Put plainly: Positive allosteric modulation of GABA-A receptor in Sprague-Dawley rat primary hippocampal neurons assessed as channel-mediated tonic current at 10 uM pretreated for 300 secs followed by BMI addition for 10 secs at -70 mV holding potential by patch-clamp method. In kind it is protein-complex assay.
The target of data set [15] is T5, Neuronal acetylcholine receptor; alpha4/beta2 (Homo sapiens). Description: Negative allosteric modulation of alpha4beta2 nAChR (unknown origin) expressed in Xenopus laevis oocytes assessed as decrease in acetylcholine-induced channel current at 100 uM at -70 mV holding potential by two-microelectrode voltage clamp method relative to control. The class given is cell-based.

In data set [16] the test system is Mus musculus. Put plainly: Anticonvulsive activity in C57BL/6N mouse assessed as protection against 52.6 +/- 2.1 mg/kg pentylenetetrazole-induced seizures by measuring elevation in seizure threshold at 0.3 mg/kg, ip pretreated for 30 mins followed by pentylenetetrazole tail-vein infusion. In kind it is functional, organism-based.
In data set [17] the target is Transient receptor potential cation channel subfamily V member 1 (Homo sapiens) (UniProt Q8NER1). Put plainly: Agonist activity at TRPV1 receptor (unknown origin) expressed in Xenopus laevis oocytes assessed as increase in channel current at 10 to 100 uM at -70 mV holding potential by two-microelectrode voltage clamp method. In kind it is cell-based.
For data set [18], the target named is Glutamate [NMDA] receptor (Homo sapiens) (UniProt Q05586+Q12879+Q13224+O15399+O60391+Q14957+Q8TCU5). Put plainly: Positive allosteric modulation of NMDA receptor (unknown origin) expressed in Xenopus laevis oocytes assessed as increase in NMDA-induced channel current at 10 to 100 uM at -70 mV holding potential by two-microelectrode voltage clamp method. The class given is cell-based.

Data set [19] concerns the target GABA-A receptor; alpha-1/beta-3/gamma-2 (Homo sapiens, UniProt P14867+P18507+P28472, F289S). Put plainly: Positive allosteric modulation of GABA-A alpha1beta3(F289S)gamma2S mutant receptor (unknown origin) expressed in Xenopus laevis oocytes assessed as increase in GABA-induced chloride current after 15 mins at -70 mV holding potential by two-microelectrode voltage clamp method. In kind it is cell-based.

Chain of Metabotropic glutamate receptor 2 (Homo sapiens) (Q14416 19-872 limits assumed): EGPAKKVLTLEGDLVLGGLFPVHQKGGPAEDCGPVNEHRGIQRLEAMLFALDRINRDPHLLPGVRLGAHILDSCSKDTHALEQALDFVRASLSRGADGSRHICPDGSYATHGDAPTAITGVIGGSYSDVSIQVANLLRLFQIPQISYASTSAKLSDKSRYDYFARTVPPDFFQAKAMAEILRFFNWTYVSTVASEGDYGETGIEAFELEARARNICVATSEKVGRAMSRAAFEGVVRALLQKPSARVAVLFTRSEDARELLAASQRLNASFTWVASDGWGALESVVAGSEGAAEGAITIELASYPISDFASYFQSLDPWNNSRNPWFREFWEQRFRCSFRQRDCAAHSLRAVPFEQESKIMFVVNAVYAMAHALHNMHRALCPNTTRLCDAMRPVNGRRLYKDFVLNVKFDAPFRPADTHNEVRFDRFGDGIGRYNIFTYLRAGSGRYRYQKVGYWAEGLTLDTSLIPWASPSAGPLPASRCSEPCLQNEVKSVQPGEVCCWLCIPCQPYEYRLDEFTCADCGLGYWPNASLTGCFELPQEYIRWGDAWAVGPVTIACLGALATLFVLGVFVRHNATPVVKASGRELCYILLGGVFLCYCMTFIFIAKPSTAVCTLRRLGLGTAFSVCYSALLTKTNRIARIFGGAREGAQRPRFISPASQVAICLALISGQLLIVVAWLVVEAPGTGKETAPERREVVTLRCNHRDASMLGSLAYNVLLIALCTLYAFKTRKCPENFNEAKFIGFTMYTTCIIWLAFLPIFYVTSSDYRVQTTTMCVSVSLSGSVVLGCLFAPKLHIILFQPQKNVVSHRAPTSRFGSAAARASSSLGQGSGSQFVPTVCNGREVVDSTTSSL
Chain of Transient receptor potential cation channel subfamily V member 1 (Homo sapiens) (Q8NER1 whole entry): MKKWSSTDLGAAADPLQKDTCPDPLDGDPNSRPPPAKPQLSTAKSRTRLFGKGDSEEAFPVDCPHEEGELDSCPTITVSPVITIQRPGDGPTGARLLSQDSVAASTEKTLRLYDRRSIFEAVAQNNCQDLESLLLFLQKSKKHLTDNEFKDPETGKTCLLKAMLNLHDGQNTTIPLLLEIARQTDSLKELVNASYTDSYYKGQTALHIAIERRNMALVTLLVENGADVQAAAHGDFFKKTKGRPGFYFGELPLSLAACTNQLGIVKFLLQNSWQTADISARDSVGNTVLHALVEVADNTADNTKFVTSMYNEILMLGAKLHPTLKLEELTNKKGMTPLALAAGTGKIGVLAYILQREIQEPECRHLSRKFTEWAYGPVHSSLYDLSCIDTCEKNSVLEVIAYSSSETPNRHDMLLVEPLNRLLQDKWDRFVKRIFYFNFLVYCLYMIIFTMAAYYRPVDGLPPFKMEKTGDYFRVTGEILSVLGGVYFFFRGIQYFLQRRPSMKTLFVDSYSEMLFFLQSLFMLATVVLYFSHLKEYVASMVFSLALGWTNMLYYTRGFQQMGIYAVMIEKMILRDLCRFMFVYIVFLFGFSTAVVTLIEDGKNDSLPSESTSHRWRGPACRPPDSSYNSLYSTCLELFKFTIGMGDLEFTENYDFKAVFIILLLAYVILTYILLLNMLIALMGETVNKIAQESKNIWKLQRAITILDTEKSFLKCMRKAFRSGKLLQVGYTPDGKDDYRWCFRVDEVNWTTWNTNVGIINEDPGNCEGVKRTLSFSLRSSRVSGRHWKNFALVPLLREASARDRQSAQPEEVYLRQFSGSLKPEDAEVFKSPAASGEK

As to `CC(=C(C#N)C(N)=O)c1ccc(Cl)cc1Cl` (mixture of isomers), in data set [1], the EC50 is 67 µM.
Same read-out and setting: the value for `C/C(C#N)=C\c1ccc(Cl)cc1Cl` was 91 µM.
Regarding `C/C(=C(/C#N)C(N)=O)c1ccc(Cl)cc1Cl`, the values for the half-maximal effective concentration (EC50) in [1] and in data set [2] were 55 µM and 64 µM, respectively.
Take `C/C(=C/C#N)c1ccc(Cl)cc1Cl`: the result (in [3]; in the data set with Mus musculus [9]; in the data set with Mus musculus [16]) was Active. Moreover, the Activity was 78% in [4]; “Non-Toxic” in the data set with Oocyte; 213% in data set [6]; 97% in data set [12]; -38 pA in data set [14]. Also, the Emax at 300 µM in [5] was determined as 883%. Further, the EC50 came out at 103 µM in data set [7]; 13 µM in data set [1]; 10 µM in data set [11]; 148 µM in data set [13]; 15 µM in data set [2]; 171 µM in [19]. The result in [8], in data set [10], in data set [17] and in [18] was inactive. Also, the inhibition in [15] turned out to be 70%.
With `C/C(C#N)=C\c1ccc(C)cc1Cl`, the concentration giving a half-maximal response (EC50) in [1] came to 44 µM.

In general, EC50 refers to the midpoint of the concentration-response curve. One may read the Emax as the maximal effect, on the per cent scale that the assay sets. A word on the inhibition: it is the share of the control response that was lost under treatment.
